The text below walks through data of US6028061A, “Angiogenesis inhibitors and use thereof” (Children's Medical Center Corp, priority 1998, dated 2000).

The subject of data set [1] is FGF-2 mitogenic activity in F32 cells. Description: FGF-2 mitogenicity assay in F32 cells, absence of added heparin ([3H]-thymidine incorporation; stimulation of FGF-2 activity). The data set is classed as cell-based. To be noted: for [3H]-thymidine incorporation, controls alone: F32 cells, heparin (alone) and FGF-2 (alone) controls. As to the method: (§1) Assay of FGF-2 mitogenic activity, FGF-2 mitogenicity assays were performed in F32 cells that express FGF-receptor 1 (FGF-R1)(16) but no detectable levels of heparan sulfate proteoglycans (17). […] Tested glycosaminoglycans were added in concentrations ranging from 1-5000 ng/ml. Proliferation was measured after 40 h incubation in 200 μl medium (RPM1 1640, 10% heat-inactivated newborn calf serum) in the presence of a 1 μCi/well pulse of [^3 H]-thymidine during the final 6 h of the incubation. Radioactivity incorporated into DNA was quantified by scintillation counting, MTT, 3-[4,5-dimethylthiazol-2-yl]-2,5-diphenyl tetrazolium bromide (Thiazole blue), used to determine cell viability, was from Sigma Chemical (St. Louis, Mo.).
(§2) Influence of glycosaminoglycans and their derivatives on FGF-2 mitogenic activity. The direct influence of acharan sulfate and its derivative on FGF-2 mitogenic activity was measured in the absence of added heparin. […] The effect of acharan sulfate on cell viability was assessed by measuring the formation of a chromogen from MTT, a tetrazolium dye that is converted solely by living cells (18). […] Thus, the inhibition of mitogenicity is not due to toxicity leading to reduced cell number.
(In general: Uptake of a labelled nucleoside into DNA is a usual measure of proliferation.)

Data set [2] relates to FGF-2. To be noted: cited from earlier work.
The target in data set [3] is FGF-2. Nature of the data set: Isothermal titration calorimetry of glycosaminoglycan binding to FGF-2. To be noted: for Kd / n, average number of FGF-2 molecules occupying a single glycosaminoglycan chain (stoichiometry): 50 mM sodium phosphate pH 7.4, 100 mM NaCl, 25° C; for FGF-2 binding (in words): isothermal titration calorimetry. As to the method: Interaction of glycosaminoglycans and their derivatives with FGF-2. Isothermal titration calorimetry was performed in 50 mM sodium phosphate buffer, pH 7.4, containing 100 mM sodium chloride at 25° C. as previously described (15).
Determination of the FGF-2 binding affinity of glycosaminoglycans and their derivatives. Isothermal titration calorimetry was performed with heparin oligosaccharides, herapin, acharan sulfate and N-sulfoacharan sulfate. The heat of interaction (ΔH) is directly measured in this experiment. From this heat of interaction the Kd, and n (stoichiometry) of interaction can be deduced. The minimum FGF-2 binding site is a tetra- or hexasaccharide. […] The n value is consistent with the molecular weight of each ligand (Table 2).

The subject of data set [4] is FGF-2 mitogenic activity in F32 cells. Nature of the data set: FGF-2 mitogenicity assay in F32 cells, presence of 10 ng/ml heparin ([3H]-thymidine incorporation; inhibition of heparin-mediated activity). To be noted: for FGF-2 mitogenicity in the presence of heparin (in words): 10 ng/ml heparin, 150 pM FGF-2, 40 h. The class given is cell-based. Here is the method: as §1, §2

Data set [5] concerns F32 cells. Nature of the data set: MTT cell viability assay. The class given is cell-based. The note with it: 40 h incubation, same concentrations as in the mitogenicity assays. Here is the method: as §1, §2
For orientation: Formazan colour is commonly taken as a measure of viable cells.

The term Kd denotes the equilibrium constant for the complex coming apart. A higher Kd goes with weaker binding.

“Also recorded” adds a separate entry of the source.

Consider “FGF-2: growth factor, control alone in F32 mitogenicity assay”, for which, in data set [1], the “[3H]-thymidine incorporation, controls alone” value was ~ 750 cpm.
Heparin [reference compound]: the “mitogenic activity (literature, in words)” value in data set [2] is given as “known to enhance the activity of FGF-2”. For the same substance, in data set [3], the Kd worked out at 36 nM and the “FGF-2 binding (in words)” value is “bind FGF-2 most tightly”. Besides, in data set [1], the “[3H]-thymidine incorporation, controls alone” value is ~ 750 cpm.
Turning to “Low molecular weight heparin [reference compound]”, in data set [3], binding was put at a Kd of 36 nM and the “n, average number of FGF-2 molecules occupying a single glycosaminoglycan chain (stoichiometry)” value (“n, average number” for short) is 3.6.
Take “ΔUAp2S(1→[4)GlcNp2S6S(1→4)IdoAp2S(→]m=1-5) [dodecasaccharide, reference compound]”: in data set [3], the “n, average number” value is given as 1.8.
Consider “→4)GlcNp2S(1→4)IdoAp2S(1→ [N-sulfoacharan sulfate]”, for which the “FGF-2 mitogenicity in the presence of heparin (in words)” value (shortened to “FGF-2 mitogenicity in the presence”) in data set [4] is recorded as “no discernible effect on FGF-2 mitogenicity induced by heparin”. Further, the “FGF-2 mitogenicity in the presence” value in data set [4] (listed as N-sulfoacharan) is reported as “failed to further stimulate FGF-2 mitogenicity”. Besides, in data set [3], the dissociation constant Kd amounted to 90 nM; the “n, average number” value amounted to 4.4; the “FGF-2 binding (in words)” value was “bind FGF-2 most tightly; also recorded: tightly bound multiple FGF-2 molecules”. Moreover, the “FGF-2 mitogenic activity (in words)” value in data set [1] (absence of added heparin) was “about the same activity as the syndecan-1 ectodomain; also recorded: minimal mitogenic activity compared with that of heparin”. In data set [1] (absence of added heparin, on a weight basis), the “activity relative to heparin, fold less active” value is given as “about 150 fold”.
With “→4)GlcNpAc(1→4)IdoAp2S(1→ [Acharan sulfate]”, the “cell viability (number of living cells, MTT)” value in data set [5] is listed as “no reduction in the number of living cells”. In addition, the “FGF-2 mitogenicity in the presence” value in data set [4] is reported as “markedly decreased the mitogenic activity in a concentration dependent manner; also recorded: inhibited FGF-2 mitogenicity in the presence of heparin”. Also, in data set [4] (in the presence of 10 ng/ml heparin), the “IC50 of inhibition of FGF-2 mitogenicity” value is recorded as ~ 400 ng/ml. Further, in data set [3], binding was put at a Kd of 4500 nM; the “n, average number” value is recorded as 13.4; the “FGF-2 binding (in words)” value was “binds very poorly; also recorded: very weak”. The dissociation constant Kd in data set [3] (listed as acharan sulfate) is greater than 4000 nM.
